In patent US8980865B2, “Substituted nucleotide analogs” (priority 2011, dated 2015):
Read-outs that look alike come from different tables or passages of the source.

Legend:
[1] = system: Huh-7 cells containing the self-replicating, subgenomic HCV replicon; assay: HCV replicon assay (luciferase reporter); type: cell-based; details: Hepatitis C virus, Huh-7, 72 h
Description: Huh-7 cells containing the self-replicating, subgenomic HCV replicon with a stable luciferase (LUC) reporter were cultured in Dulbecco's modified Eagle's medium (DMEM) containing 2 mM L-glutamine and supplemented with 10% heat-inactivated fetal bovine serum (FBS), 1% penicillin-streptomyocin, 1% nonessential amino acids, and 0.5 mg/mL G418.
Determination of 50% inhibitory concentration (EC50) of compounds in HCV replicon cells were performed by the following procedure. On the first day, 5,000 HCV replicon cells were plated per well in a 96-well plate. On the following day, test compounds were solubilized in 100% DMSO to 100× the desired final testing concentration. Each compound was then serially diluted (1:3) up to 9 different concentrations. Compounds in 100% DMSO are reduced to 10% DMSO by diluting 1:10 in cell culture media. The compounds were diluted to 10% DMSO with cell culture media, which were used to dose the HCV replicon cells in 96-well format. The final DMSO concentration was 1%. The HCV replicon cells were incubated at 37° C. for 72 hours. At 72 hours, cells were processed when the cells are still subconfluent. Compounds that reduce the LUC signal are determined by Bright-Glo Luciferase Assay (Promega, Madison, Wis.). % Inhibition was determined for each compound concentration in relation to the control cells (untreated HCV replicon) to calculate the EC50.
Compounds of Formula (I) are active in the replicon assay. The antiviral activity of exemplary compounds is shown in Table 3, where ‘A’ indicates an EC50<1 μM, ‘B’ indicates an EC50≧1 μM and <10 μM, and ‘C’ indicates an EC50≧10 μM and <100 μM.

NS5B570-Con1 (Delta-21) = NS5B570-Con1 (Delta-21) (Hepatitis C virus genotype 1b, UniProt Q9WMX2); assay: NS5B inhibition assay; type: biochemical, HCV; details: IC50, incorporation of tritiated NMP into acid-insoluble RNA, 2 hours at 37° C.
Description: The enzyme activity of NS5B570-Con1 (Delta-21) was measured as an incorporation of tritiated NMP into acid-insoluble RNA products. The complementary IRES (cIRES) RNA sequence was used as a template, corresponding to 377 nucleotides from the 3′-end of HCV (−) strand RNA of the Con-1 strain, with a base content of 21% Ade, 23% Ura, 28% Cyt, and 28% Gua. The cIRES RNA was transcribed in vitro using a T7 transcription kit (Ambion, Inc.) and purified using the Qiagen RNeasy maxi kit. HCV polymerase reactions contained 50 nM NS5B570-Con1, 50 nM cIRES RNA, about 0.5 μCi tritiated NTP, 1 μm of competing cold NTP, 20 mM NaCl, 40 mm Tris-HCl (pH 8.0), 4 mm dithiothreitol, and 4 mm MgCl2. Standard reactions were incubated for 2 hours at 37° C., in the presence of increasing concentration of inhibitor. At the end of the reaction, RNA was precipitated with 10% TCA, and acid-insoluble RNA products were filtered on a size exclusion 96-well plate. After washing of the plate, scintillation liquid was added and radio labeled RNA products were detected according to standard procedures with a Trilux Topcount scintillation counter. The compound concentration at which the enzyme-catalyzed rate was reduced by 50% (IC50) was calculated by fitting the data to a non-linear regression (sigmoidal). The IC50 values were derived from the mean of several independent experiments. […]

[2] = system: HCV genotype 1b HCV replicon harbored in Huh7 cells; assay: Combination testing in HCV replicon (CalcuSyn CI, MacSynergy II synergy volume); type: cell-based
Description: Two or more test compounds were tested in combination with each other using an HCV genotype 1b HCV replicon harbored in Huh7 cells with a stable luciferase (LUC) reporter. Cells were cultured under standard conditions in Dulbecco's modified Eagle's medium (DMEM; Mediatech Inc, Herndon, Va.) containing 10% heat-inactivated fetal bovine serum (FBS; Mediatech Inc, Herndon, Va.) 2 mM L-glutamine, and nonessential amino acids (JRH Biosciences). HCV replicon cells were plated in a 96-well plate at a density of 10^4 cells per well in DMEM with 10% FBS. On the following day, the culture medium was replaced with DMEM containing either no compound as a control, the test compounds serially diluted in the presence of 2% FBS and 0.5% DMSO, or a combination of compound 1a with one or more test compounds serially diluted in the presence of 2% FBS and 0.5% DMSO. The cells were incubated with no compound as a control, with the test compounds, or the combination of compounds for 72 hours. The direct effects of the combination of the test compounds were examined using a luciferase (LUC) based reporter as determined by the Bright-Glo Luciferase Assay (Promega, Madison, Wis.). Dose-response curves were determined for individual compounds and fixed ratio combinations of two or more test compounds.
The effects of test compound combinations were evaluated by two separate methods. In the Loewe additivity model, the experimental replicon data was analyzed by using CalcuSyn (Biosoft, Ferguson, Mo.), a computer program based on the method of Chou and Talalay. The program uses the experimental data to calculate a combination index (CI) value for each experimental combination tested. […]
The second method utilized for evaluating combination effects used a program called MacSynergy II. […] The volumes of synergy (positive volumes) or antagonism (negative volumes) represent the relative quantity of synergism or antagonism per change in the concentrations of the two drugs. […]

SMILES | EC50 [1] | also measured
C#C[C@@]1(O)[C@H](O)[C@@H](COP(=S)(N[C@@H](C)C(=O)OC(C)C)Oc2ccccc2)O[C@H]1n1ccc(=O)[nH]c1=O (some centres unmarked) [Compound 1a] | < 1000 nM | 
C#C[C@@]1(O)[C@H](O)[C@@H](CO[P@@](=S)(N[C@@H](C)C(=O)OC(C)C)Oc2ccccc2)O[C@H]1n1ccc(=O)[nH]c1=O [Compound 1aa] | < 1000 nM | 
C#C[C@@]1(O)[C@H](O)[C@@H](CO[P@](=S)(N[C@@H](C)C(=O)OC(C)C)Oc2ccccc2)O[C@H]1n1ccc(=O)[nH]c1=O [Compound 1ab] | < 1000 nM | 
C=C[C@@]1(O)[C@H](O)[C@@H](COP(=S)(N[C@@H](C)C(=O)OC(C)C)Oc2ccccc2)O[C@H]1n1ccc(=O)[nH]c1=O (some centres unmarked) [Compound 2a] | 1000 to 10000 nM | 
C#C[C@@]1(O)[C@H](O)[C@@H](COP(=S)(N[C@@H](C)C(=O)OC(C)C)Oc2ccccc2)O[C@H]1n1cnc2c(N)ncnc21 (some centres unmarked) [Compound 4a] | < 1000 nM | 
C#C[C@@]1(O)[C@H](O)[C@@H](COP(=S)(N[C@@H](C)C(=O)OC(C)C)Oc2ccccc2)O[C@H]1n1cnc2c(=O)[nH]c(N)nc21 (some centres unmarked) [Compound 6a] | 1000 to 10000 nM | 
C#C[C@@]1(O)[C@H](O)[C@@H](COP(=S)(N[C@@H](CCSC)C(=O)OC(C)C)Oc2ccccc2)O[C@H]1n1ccc(=O)[nH]c1=O (some centres unmarked) [Compound 7a] | < 1000 nM | 
C#C[C@@]1(O)[C@H](O)[C@@H](COP(=S)(N[C@H](C(=O)OC(C)C)C(C)C)Oc2ccccc2)O[C@H]1n1ccc(=O)[nH]c1=O (some centres unmarked) [Compound 8a] | 10000 to 100000 nM | 
C#C[C@@]1(O)[C@H](O)[C@@H](COP(=S)(N[C@@H](CC(C)C)C(=O)OC(C)C)Oc2ccccc2)O[C@H]1n1ccc(=O)[nH]c1=O (some centres unmarked) [Compound 9a] | 1000 to 10000 nM | 
C#C[C@@]1(O)[C@H](O)[C@@H](COP(=S)(N[C@@H](C)C(=O)OC(C)C)Oc2ccc(F)cc2)O[C@H]1n1ccc(=O)[nH]c1=O (some centres unmarked) [Compound 10a] | < 1000 nM | 
C#C[C@@]1(O)[C@H](O)[C@@H](COP(=S)(N[C@@H](C)C(=O)OC(C)C)Oc2ccc(Cl)cc2)O[C@H]1n1ccc(=O)[nH]c1=O (some centres unmarked) [Compound 11a] | < 1000 nM | 
C#C[C@@]1(O)[C@H](O)[C@@H](COP(=S)(N[C@@H](C)C(=O)OC(C)C)Oc2ccc(F)c(Cl)c2)O[C@H]1n1ccc(=O)[nH]c1=O (some centres unmarked) [Compound 12a] | < 1000 nM | 
C#C[C@@]1(O)[C@H](O)[C@@H](COP(=S)(N[C@@H](C)C(=O)OC(C)C)Oc2cccc3ccccc23)O[C@H]1n1ccc(=O)[nH]c1=O (some centres unmarked) [Compound 13a] | < 1000 nM | 
CC#C[C@@]1(O)[C@H](O)[C@@H](COP(=S)(N[C@@H](C)C(=O)OC(C)C)Oc2ccccc2)O[C@H]1n1ccc(=O)[nH]c1=O (some centres unmarked) [Compound 14a] | 1000 to 10000 nM | 
CC(C)OC(=O)[C@H](C)NP(=S)(OC[C@H]1O[C@@H](n2ccc(=O)[nH]c2=O)[C@@](O)(C#CI)[C@@H]1O)Oc1ccccc1 (some centres unmarked) [Compound 15a] | < 1000 nM | 
C#C[C@@]1(F)[C@H](O)[C@@H](COP(=S)(N[C@@H](C)C(=O)OC(C)C)Oc2ccccc2)O[C@H]1n1ccc(=O)[nH]c1=O (some centres unmarked) [Compound 16a] | 1000 to 10000 nM | 
C#C[C@@]1(O)[C@H](O)[C@@H](COP(=S)(N[C@@H](C)C(=O)OC2CCCCC2)Oc2ccccc2)O[C@H]1n1cnc2c(=O)[nH]c(N)nc21 (some centres unmarked) [Compound 17a] | 1000 to 10000 nM | 
CCC#C[C@@]1(O)[C@H](O)[C@@H](COP(=S)(N[C@@H](C)C(=O)OC(C)C)Oc2ccccc2)O[C@H]1n1ccc(=O)[nH]c1=O (some centres unmarked) [Compound 18a] | 10000 to 100000 nM | 
C#C[C@@]1(O)[C@H](O)[C@@H](COP(=S)(N[C@@H](CCC)C(=O)OC(C)C)Oc2ccccc2)O[C@H]1n1ccc(=O)[nH]c1=O (some centres unmarked) [Compound 19a] | < 1000 nM | 
CC(C)C#C[C@@]1(O)[C@H](O)[C@@H](COP(=S)(N[C@@H](C)C(=O)OC(C)C)Oc2ccccc2)O[C@H]1n1ccc(=O)[nH]c1=O (some centres unmarked) [Compound 20a] | 10000 to 100000 nM | 
C#C[C@@]1(O)[C@H](O)[C@@H](COP(=S)(N[C@@H](CC)C(=O)OC(C)C)Oc2ccccc2)O[C@H]1n1ccc(=O)[nH]c1=O (some centres unmarked) [Compound 21a] | < 1000 nM | 
C#CC1(O)C(O)C(COP(O)(=S)OP(=O)(O)OP(=O)(O)O)OC1n1ccc(=O)[nH]c1=O (centres unmarked) [Compound 23a] |  | IC50 (NS5B570-Con1 (Delta-21)): < 1000 nM
C#CC1(O)C(O)C(COP(O)(=S)OP(=O)(O)OP(=O)(O)O)OC1n1ccc(=O)[nH]c1=O (centres unmarked) [Compound 24a] |  | IC50 (NS5B570-Con1 (Delta-21)): < 10000 nM
CCC[C@H](NC(=O)[C@@H]1[C@H]2CCC[C@H]2CN1C(=O)[C@@H](NC(=O)[C@@H](NC(=O)c1cnccn1)C1CCCCC1)C(C)(C)C)C(=O)C(=O)NC1CC1 [Compound 1001, Telaprevir] |  | Synergy Volume [2]: 104 μM^2%
CC1CCC(C(=O)N(c2cc(C#CC(C)(C)C)sc2C(=O)O)C2CCC(O)CC2)CC1 (centres unmarked) [Compound 3003] |  | Synergy Volume [2]: 32 μM^2%
CC(C)OC(=O)C(C)NP(=S)(OC[C@H]1O[C@@H](n2ccc(=O)[nH]c2=O)[C@](C)(O)[C@@H]1O)Oc1ccccc1 (some centres unmarked) [Compound 6002] |  | Synergy Volume ([2]; combination of compound 1a with the listed compound, 72 hours, MacSynergy II, Bliss independence, 25-100 synergistic, >100 strong synergistic): 29 μM^2%
